According to US20130072459A1, “PHARMACEUTICAL COMPOSITION FOR THE PREVENTION OR THE TREATMENT OF NON-ALCOHOLIC FATTY LIVER DISEASE AND THE METHOD FOR PREVENTION OR TREATMENT OF NON-ALCOHOLIC FATTY LIVER DISEASE USING THE SAME” (priority 2010, published 2013):
Blank lines part the entries; values can stand above or below the molecule they belong to.

Columns and labels:
[1] = test system: activated hepatic stellate cells; assay: Expression of activity indicator proteins (TGFβ1, α-SMA) in activated hepatic stellate cells, Western blot; type: cell-based, rat (Wistar); settings: for 1 ng/mL TGFβ1-induced protein expression inhibition rate, TGFβ1 / 1 ng/mL TGFβ1-induced protein expression inhibition rate, α-SMA: 100 μM compound, 7 days, N = 3, corrected by β-actin; for protein expression levels of TGFβ1 and α-SMA, result in words: hTGF-β1-activated rat hepatic stellate cells
Method: An inhibitory action of the compounds of the present invention on the activation of hepatic stellate cells was tested according to the following cell culture method. Male rats (Wistar rats), weighing 500 to 700 g, were anesthetized, followed by an abdominal incision, and cannulae were connected to hepatic portal veins, followed by sequential perfusion with a Hank's Balanced Salt Solution (HBSS) containing heparin and an HBSS containing type 1 collagenase. After the perfusion was complete, the liver was excised, ground with surgical scissors, and added to an HBSS containing type 1 collagenase, followed by shaking culture at 37° C. for 15 minutes. The completely ground liquid-state liver tissue was passed through gauze and centrifuged at 500 g for 10 minutes. The resulting mingled cell precipitate was washed with a phosphate buffer, followed by centrifugation at 100 g for 5 minutes, and the supernatant was collected. The supernatant was further centrifuged at 500 g for 10 minutes to obtain a precipitate to which a 9:1 (v/v) mixture of a Ficoll liquid (GE Healthcare) and a Percoll liquid (GE Healthcare) was added, followed by mixing. A phosphate buffer was gently placed on the mixed layer, followed by centrifugation at 1,400 g for 15 minutes. Then, the cell layer formed between the upper layer and the lower layer was recovered and washed once with a Dulbecco's Modified Eagle Medium (DMEM) containing 10(v/v) % fetal bovine serum. The resulting cells were added at a cell density of 3.1×10^5 cells/cm^2, the medium was exchanged with a fresh medium after 24 hours, and cultured for 7 days with exchange of the medium at intervals of 2 to 3 days. Then, the drugs were treated at specified concentrations in a medium containing 1 ng/ml of a human transforming growth factor (TGF) β1 and a medium containing no TGF β1. TGF β1 was dissolved in dimethylsulfoxide (DMSO) to a concentration 1.000-fold higher than the desired treatment concentration of the drug, 1.000-fold diluted in a medium to be a 1-fold (1×) volume, and then treated on cells. After 7 days of the drug treatment, the medium was harvested and washed with a phosphate buffer. A buffer containing a surfactant was added thereto and the cells were lysed. Then, proteins were quantified, electrophoresed on a 4-12% Bis-Tris gel (Invitrogen), and transferred to a nitrocellulose membrane. The transferred proteins were reacted with primary antibodies specific for α-smooth muscle actin (α-SMA) or TGFβ1, and then reacted with horse radish peroxidase-conjugated specific secondary antibodies. The expression level of the target protein was confirmed using a chemiluminescent liquid and corrected in terms of actin (β-actin) expression level (FIG. 9). The decrement of observed protein expression by 100 μM of individual compounds of the present invention was expressed as a percentage drug-induced decrement, based an increment of protein expression in the TGFβ1-treated positive control group relative to the negative control group to which only DMSO was added (Table 3).

HepG2 cells = assay: Free fatty acid-induced intracellular fat accumulation, Nile Red staining; type: cell-based, human; settings: for free fatty acid-induced fat accumulation in hepatocytes, result in words: FIG. 10; for inhibition at 1 µM: Homo sapiens, HepG2, 0.5 mM free fatty acid, 24 hours, read-out: inhibitory effects on free fatty acid-induced fat accumulation
Method: By a combined treatment of free fatty acid and a drug, inhibitory effects of individual drugs on intracellular fat accumulation were quantified using a triglyceride staining method. The human hepatoma cell line, HepG2 cells were cultured in a minimum essential medium (MEM) containing 10(v/v) % fetal bovine serum for 48 hours. […] For the negative control group, a MEM containing 1(v/v) % bovine serum albumin was treated with 0.1(v/v) % dimethyl sulfoxide with no addition of free fatty acid. After the culture was complete, the medium was removed and the cells were washed with a phosphate buffer. […] After the staining was complete, the supernatant was discarded and replaced with a phosphate buffer, followed by measurement of fluorescence intensities under conditions of a 488 nm excitation wavelength and a 550 nm emission wavelength. Then, in order to correct a deviation according to the cell count, a phosphate buffer containing 10 μM resazurin (Sigma) dissolved therein was added to the same well. Thereafter, before and after the reaction at 37° C. for 1 hour under light-shielded conditions, fluorescence intensities were measured using a fluorometer under conditions of a 535 nm excitation wavelength and a 580 nm emission wavelength, whereby an increase in fluorescence intensity due to resorufin reduced and formed by the intracellular mitochondrial activity was measured. Using the value of a fluorescence intensity of Nile Red corrected in terms of an increase in fluorescence intensity due to the reduction of resazurin, the experimental results were expressed as a percentage for the fat accumulation increased by a treatment with free fatty acid, as compared to the negative control group.

free fatty acid-induced fat accumulation in hepatocytes, result in words (HepG2 cells): dose-dependent inhibition
SMILES: N[C@@H](CC(=O)N1CCn2c(nnc2C(F)(F)F)C1)Cc1cc(F)c(F)cc1F [sitagliptin phosphate, sitagliptin]
1 ng/mL TGFβ1-induced protein expression inhibition rate, TGFβ1 [1]: −6 ± 51.9%
1 ng/mL TGFβ1-induced protein expression inhibition rate, α-SMA [1]: 46 ± 7.3%
protein expression levels of TGFβ1 and α-SMA, result in words [1]: lowered
inhibition at 1 µM (HepG2 cells): 28.7 ± 3.2%

SMILES: CC(C)(C)OC[C@@H]1C(=O)NCCN1C(=O)C[C@H](N)Cc1cc(F)c(F)cc1F [tartrate of Compound 1, (R)-4-[(R)-3-amino-4-(2,4,5-trifluorophenyl)-butanoyl]-3-(t-butoxymethyl)piperazin-2-one]
1 ng/mL TGFβ1-induced protein expression inhibition rate, TGFβ1 [1]: 78 ± 17.2%
1 ng/mL TGFβ1-induced protein expression inhibition rate, α-SMA [1]: 25 ± 1.9%
concentration dependence of protein expression decrement of TGFβ1 and α-SMA, result in words ([1]; FIG. 9): increased with a higher concentration
protein expression levels of TGFβ1 and α-SMA, result in words [1]: lowered
free fatty acid-induced fat accumulation in hepatocytes, result in words (HepG2 cells): dose-dependent inhibition
inhibition at 1 µM (HepG2 cells): 28.7 ± 3.2%
